Laboratory results reported in the supplement of paper PMC11451515.

System: SEM cells
Test: cell viability relative to DMSO control; higher = less cytotoxic
Details: 48 h
Outline: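 Library compounds in DMSO were pin-dosed in an 11-point threefold series (47 μM to 0.79 nM) onto leukemia cells in 1536-well plates (5 μl). Plates held 500 cells/well of NOMO1 or SEM or 1000 cells/well of P12-Ichikawa, each adapted for at least four passages in each medium. Luminescence was read with CellTiter-Glo One after 48 h at 37°C. Viability means the per-plate percentage relative to DMSO wells, using cell-free wells as background.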

[1] = HPLM + 10% dialyzed FBS, 0.000781 µM
[2] = HPLM + 10% dialyzed FBS, 0.00234 µM
[3] = HPLM + 10% dialyzed FBS, 0.00702 µM
[4] = HPLM + 10% dialyzed FBS, 0.0211 µM
[5] = HPLM + 10% dialyzed FBS, 0.0632 µM
[6] = HPLM + 10% dialyzed FBS, 0.19 µM
[7] = HPLM + 10% dialyzed FBS, 0.569 µM
[8] = HPLM + 10% dialyzed FBS, 1.71 µM
[9] = HPLM + 10% dialyzed FBS, 5.12 µM
[10] = HPLM + 10% dialyzed FBS, 15.4 µM
[11] = HPLM + 10% dialyzed FBS, 46.1 µM
[12] = RPMI 5 mM glucose + 10% FBS, 0.000781 µM
[13] = RPMI 5 mM glucose + 10% FBS, 0.00234 µM
[14] = RPMI 5 mM glucose + 10% FBS, 0.00702 µM
[15] = RPMI 5 mM glucose + 10% FBS, 0.0211 µM
[16] = RPMI 5 mM glucose + 10% FBS, 0.0632 µM
[17] = RPMI 5 mM glucose + 10% FBS, 0.19 µM
[18] = RPMI 5 mM glucose + 10% FBS, 0.569 µM
[19] = RPMI 5 mM glucose + 10% FBS, 1.71 µM
[20] = RPMI 5 mM glucose + 10% FBS, 5.12 µM
[21] = RPMI 5 mM glucose + 10% FBS, 15.4 µM
[22] = RPMI 5 mM glucose + 10% FBS, 46.1 µM
[23] = RPMI 5 mM glucose + 10% dialyzed FBS, 0.000781 µM
[24] = RPMI 5 mM glucose + 10% dialyzed FBS, 0.00234 µM
[25] = RPMI 5 mM glucose + 10% dialyzed FBS, 0.00702 µM
[26] = RPMI 5 mM glucose + 10% dialyzed FBS, 0.0211 µM
[27] = RPMI 5 mM glucose + 10% dialyzed FBS, 0.0632 µM
[28] = RPMI 5 mM glucose + 10% dialyzed FBS, 0.19 µM
[29] = RPMI 5 mM glucose + 10% dialyzed FBS, 0.569 µM
[30] = RPMI 5 mM glucose + 10% dialyzed FBS, 1.71 µM
[31] = RPMI 5 mM glucose + 10% dialyzed FBS, 5.12 µM
[32] = RPMI 5 mM glucose + 10% dialyzed FBS, 15.4 µM
[33] = RPMI 5 mM glucose + 10% dialyzed FBS, 46.1 µM

Structure (SMILES) | cell viability [1] [%] | cell viability [2] [%] | cell viability [3] [%] | cell viability [4] [%] | cell viability [5] [%] | cell viability [6] [%] | cell viability [7] [%] | cell viability [8] [%] | cell viability [9] [%] | cell viability [10] [%] | cell viability [11] [%] | cell viability [12] [%] | cell viability [13] [%] | cell viability [14] [%] | cell viability [15] [%] | cell viability [16] [%] | cell viability [17] [%] | cell viability [18] [%] | cell viability [19] [%] | cell viability [20] [%] | cell viability [21] [%] | cell viability [22] [%] | cell viability [23] [%] | cell viability [24] [%] | cell viability [25] [%] | cell viability [26] [%] | cell viability [27] [%] | cell viability [28] [%] | cell viability [29] [%] | cell viability [30] [%] | cell viability [31] [%] | cell viability [32] [%] | cell viability [33] [%]
NC\1=N\C(=O)N(\C=C1)[C@@H]2O[C@H](CO)[C@@H](O)[C@@H]2O | 23.7 | 26.1 | 17.2 | 15.7 | 13.3 | 11 | 10.9 | 8.22 | 7.91 | 7.2 | 3.82 | 37.4 | 37.7 | 23.5 | 21.1 | 11.4 | 12.1 | 10.4 | 8.65 | 7.25 | 6.17 | 1.99 | 16.3 | 15.2 | 14.2 | 8.59 | 7.4 | 7.91 | 6.93 | 4.74 | 3.6 | 3.65 | 1.52
Cc1ccccc1C(=O)c1ccc(Nc2ccc(Br)cc2N)cc1Cl |  |  |  |  |  |  |  |  |  |  |  | 96 | 106 | 97.7 | 17.3 | 109 | 123 | 112 | 107 | 106 | 83.2 | 18.2 | 117 | 121 | 123 | 21.4 | 112 | 102 | 116 | 110 | 122 | 86.3 | 21.4
O=C(O)C1(Cc2cccc(Nc3nccs3)n2)CCC(Oc2cccc(Cl)c2F)CC1 (stereo not drawn) | 86.3 | 108 | 93.3 | 68.4 | 104 | 101 | 108 | 75.6 | 42 | 28.9 | 18.9 | 97 | 88.9 | 101 | 87.4 | 114 | 96.5 | 102 | 66.5 | 43.1 | 22.2 | 12.7 | 81.9 | 86.5 | 97.5 | 92.6 | 95.1 | 111 | 111 | 68.7 | 43.2 | 25.2 | 17.1
CC(C)C1NC(=O)C(NC(=O)C2=C3\N=C\4/C(=C(C)\C(=O)\C(=C4C(=O)NC5C(C)OC(=O)C(C(C)C)N(C)C(=O)CN(C)C(=O)C6CCCN6C(=O)C(NC5=O)C(C)C)N)OC3=C(C)C=C2)C(C)OC(=O)C(C(C)C)N(C)C(=O)CN(C)C(=O)C7CCCN7C1=O (stereo not drawn) | 8.02 | 8.45 | 8.63 | 7.17 | 5.33 | 4.97 | 5.75 | 5.02 | 3.36 | 1.81 | 1.57 | 6.55 | 8.45 | 7.11 | 5.21 | 4.11 | 3.76 | 4.54 | 3.75 | 2.28 | 1.15 | 1.09 | 6.94 | 7.82 | 7.08 | 7.7 | 5.11 | 4.36 | 5.1 | 3.89 | 1.96 | 2.2 | 1.26
COC\1=C(/OC)C(=O)\C(=C(C)/C1=O)CCCCCCCCCCO | 97.8 | 92 | 92.4 | 120 | 119 | 132 | 133 | 99 | 119 | 112 | 90.8 | 109 | 109 | 127 | 105 | 132 | 136 | 124 | 112 | 136 | 123 | 90.6 | 122 | 129 | 123 | 115 | 129 | 125 | 137 | 113 | 141 | 98.6 | 68.3
Cc1onc(-c2ccccc2Cl)c1C(=O)N[C@@H]1C(=O)N2[C@@H]1SC(C)(C)[C@@H]2C(=O)[O-] | 82.3 | 77.1 | 89.4 | 97.7 | 72 | 88.2 | 83.5 | 81.7 | 80.2 | 84.8 | 90 | 117 | 110 | 117 | 109 | 101 | 102 | 83.8 | 116 | 110 | 99.4 | 85.7 | 102 | 110 | 119 | 115 | 107 | 115 | 96.3 | 113 | 99.9 | 104 | 108
CN[C@@H](C)[C@H]1[C@H](O)C[C@@]2(C)[C@@H]3CC[C@H]4C(C)(C)[C@@H](NC)CC[C@@]45C[C@@]35CC[C@]12C | 73.4 | 83.6 | 53.9 | 85.5 | 90.1 | 95.8 | 83.2 | 98.4 | 42.5 | 93.4 | 66.3 | 81.8 | 83.2 | 56 | 95.2 | 82.7 | 83.3 | 109 | 68.9 | 40 | 100 | 103 | 72.7 | 75.4 | 66.4 | 83.4 | 87.3 | 99.2 | 109 | 93.9 | 44.3 | 99.4 | 89.8
O=C(O)CCC1CCC(c2cc(F)ccc2F)([S+](=O)([O-])c2ccc(Cl)cc2)CC1 (stereo not drawn) | 105 | 93.5 | 110 | 114 | 115 | 115 | 109 | 117 | 119 | 125 | 116 | 104 | 110 | 117 | 126 | 112 | 114 | 114 | 104 | 110 | 113 | 81.6 | 103 | 105 | 115 | 122 | 122 | 128 | 109 | 116 | 123 | 111 | 106
COc1cc(F)c(F)c(Nc2ccc(I)cc2F)c1N[S+](=O)([O-])C1(C[C@H](O)CO)CC1 | 102 | 108 | 122 | 106 | 111 | 103 | 105 | 89.9 | 117 | 104 | 60.2 | 111 | 109 | 121 | 112 | 119 | 126 | 97.9 | 120 | 109 | 83.6 | 15.3 | 110 | 105 | 115 | 115 | 112 | 117 | 104 | 102 | 106 | 103 | 50.4
CC[S+](=O)([O-])c1cccc(-c2cc(C(=O)NC3CCN(C)CC3)c(C)c3[nH]c4ncc(C)cc4c23)c1 | 109 | 103 | 130 | 110 | 124 | 101 | 52.3 | 38.6 | 30.2 | 18.8 | 8.97 | 114 | 120 | 140 | 120 | 138 | 83.2 | 46.6 | 27.7 | 20.6 | 12.9 | 5.92 | 99.2 | 92.5 | 135 | 127 | 118 | 82.6 | 46 | 31.9 | 23.8 | 20.6 | 6.33
COc1ccccc1OCC(O)COC(N)=O (stereo not drawn) | 84 | 102 | 104 | 110 | 118 | 114 | 109 | 106 | 119 | 111 | 89.1 | 94.6 | 110 | 85.6 | 110 | 104 | 95.8 | 112 | 106 | 120 | 97.6 | 99.4 | 108 | 109 | 103 | 123 | 106 | 121 | 136 | 93.8 | 126 | 118 | 112
COc1ccc([C@@H]2CC(=O)c3c(O)cc(O[C@@H]4O[C@H](CO[C@@H]5O[C@@H](C)[C@H](O)[C@@H](O)[C@H]5O)[C@@H](O)[C@H](O)[C@H]4O)cc3O2)cc1O | 98.6 | 101 | 119 | 114 | 109 | 120 | 103 | 102 | 112 | 107 | 74 | 117 | 106 | 107 | 102 | 111 | 106 | 115 | 116 | 103 | 111 | 52.7 | 110 | 138 | 108 | 115 | 126 | 114 | 131 | 120 | 119 | 127 | 44
O=C(C=CC#Cc1cccc(N[S+](=O)([O-])c2ccccc2)c1)NO | 119 | 103 | 113 | 119 | 122 | 109 | 107 | 87 | 13.1 | 4.27 | 4.02 | 112 | 80.6 | 103 | 111 | 109 | 89.3 | 101 | 84.4 | 10.9 | 4.75 | 4.28 | 105 | 94.8 | 102 | 100 | 120 | 117 | 115 | 80.2 | 7.4 | 5.47 | 5.05
